{"source": "paper PMC2898170", "about": "(Neuropsychiatric Disease and Treatment, 2010)", "key": {"PEPT2": {"target": "T1, PEPT2 (Homo sapiens, UniProt Q16348)", "T1 sequence (Q16348 1-729)": "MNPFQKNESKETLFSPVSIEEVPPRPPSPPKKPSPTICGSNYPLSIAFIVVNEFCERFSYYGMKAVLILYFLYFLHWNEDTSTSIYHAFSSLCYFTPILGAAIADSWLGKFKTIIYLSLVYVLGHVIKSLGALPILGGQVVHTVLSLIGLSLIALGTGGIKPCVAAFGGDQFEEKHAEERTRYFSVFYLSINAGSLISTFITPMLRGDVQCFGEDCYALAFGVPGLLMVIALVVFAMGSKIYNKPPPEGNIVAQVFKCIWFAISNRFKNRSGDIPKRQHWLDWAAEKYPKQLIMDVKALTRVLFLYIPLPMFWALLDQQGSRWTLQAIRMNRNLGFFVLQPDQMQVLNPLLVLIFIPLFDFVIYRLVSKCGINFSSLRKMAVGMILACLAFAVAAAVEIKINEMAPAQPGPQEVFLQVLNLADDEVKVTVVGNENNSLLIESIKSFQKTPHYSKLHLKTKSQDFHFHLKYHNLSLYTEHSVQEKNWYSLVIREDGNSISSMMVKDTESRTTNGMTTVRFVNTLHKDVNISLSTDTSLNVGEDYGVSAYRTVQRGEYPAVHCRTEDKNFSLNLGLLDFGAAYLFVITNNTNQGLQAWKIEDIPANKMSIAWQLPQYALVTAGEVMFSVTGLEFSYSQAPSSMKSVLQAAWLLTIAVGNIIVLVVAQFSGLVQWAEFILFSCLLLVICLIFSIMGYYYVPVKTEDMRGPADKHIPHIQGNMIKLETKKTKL", "assay": "inhibition of radiolabeled Gly-Sar uptake in transfected CHO cells", "type": "cell-based"}, "[1]": {"target": "T2, human peptide transporter-1 (PEPT1) (Homo sapiens, UniProt P46059)", "T2 sequence (P46059 1-708)": "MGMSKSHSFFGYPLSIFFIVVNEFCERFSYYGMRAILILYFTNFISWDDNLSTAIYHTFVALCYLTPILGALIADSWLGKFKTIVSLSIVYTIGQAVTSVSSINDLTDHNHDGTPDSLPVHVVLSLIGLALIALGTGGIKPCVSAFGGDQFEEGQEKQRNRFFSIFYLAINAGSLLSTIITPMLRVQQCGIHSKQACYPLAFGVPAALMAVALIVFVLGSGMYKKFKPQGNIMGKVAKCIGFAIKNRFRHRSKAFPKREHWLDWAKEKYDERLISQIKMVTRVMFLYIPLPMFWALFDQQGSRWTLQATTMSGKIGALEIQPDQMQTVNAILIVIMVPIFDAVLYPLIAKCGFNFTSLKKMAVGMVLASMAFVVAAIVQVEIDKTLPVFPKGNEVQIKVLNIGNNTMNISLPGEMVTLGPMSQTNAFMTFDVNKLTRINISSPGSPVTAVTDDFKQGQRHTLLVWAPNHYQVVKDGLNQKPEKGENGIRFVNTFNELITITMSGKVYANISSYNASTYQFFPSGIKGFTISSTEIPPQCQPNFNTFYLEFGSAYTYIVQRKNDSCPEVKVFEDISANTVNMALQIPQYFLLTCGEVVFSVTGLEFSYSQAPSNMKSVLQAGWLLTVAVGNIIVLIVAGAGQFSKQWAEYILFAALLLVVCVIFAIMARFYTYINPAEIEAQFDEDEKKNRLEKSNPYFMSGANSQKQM", "assay": "inhibition of radiolabeled Gly-Sar uptake in transfected CHO cells", "type": "cell-based"}}}
{"smiles": "C[C@@H](Cc1ccccc1)NC(=O)[C@@H](N)CCCCN", "note": "[lisdexamfetamine dimesylate]", "values": [{"measurement": "IC50", "setting": "PEPT2", "value": 246, "unit": "µM"}, {"measurement": "IC50", "setting": "[1]", "value": "~4000", "unit": "µM"}]}
